Results on 1 compound are retold here after ChEMBL document CHEMBL1126623, “Neuraminidase-resistant hemagglutination inhibitors: acrylamide copolymers containing a C-glycoside of N-acetylneuraminic acid” (J Med Chem, 1993).

By Ki is commonly meant a measure of affinity in units of concentration, obtained from inhibition or displacement. Higher therefore signals weaker binding.

For the test, the species on record is Gallus gallus. Put plainly: Tested for inhibition of agglutination of chicken erythrocytes in vitro. Type of test: functional.

With `C=CC(=O)NCCSCCCC1(C(=O)O)CC(O)C(NC(C)=O)C(C(O)C(O)CO)O1` (stereo unspecified), the Ki came to 400 nM.
